Measurements from patent publication US7276491B2, “Anticoagulant and fibrinolytic therapy using p38 MAP kinase inhibitors” (Boehringer Ingelheim Pharmaceuticals, Inc., priority 2002, dated 2007).

System: LPS-induced activation of coagulation, fibrinolysis and the vascular endothelium
Experiment: LPS study: randomized, double-blind, placebo-controlled human endotoxemia experiment
Assay type: in vivo
[1] = healthy male volunteers, high dose (600 mg oral) 3 h before LPS 4 ng/kg i.v.

With `Cc1ccc(-n2nc(C(C)(C)C)cc2NC(=O)Nc2ccc(OCCN3CCOCC3)c3ccccc23)cc1` [formula (III), 1-[3-tert-butyl-1-p-tolyl-1H-pyrazol-5-yl]-3-[4-(2-morpholin-4-yl-ethoxy)naphthalen-1-yl]-urea] the “LPS-elicited increase in plasma levels of sE-selectin (endothelial cell activation)” value [1] was “attenuated”, the “LPS-elicited increase in plasma levels of vWF (endothelial cell activation)” value [1] was “attenuated” and the “LPS-induced coagulation activation (increase in plasma prothrombin fragment F1+2 concentrations)” value (healthy male volunteers, high end dosing (600 mg oral) 3 h before LPS 4 ng/kg i.v., vs placebo) was “inhibited LPS-induced coagulation activation, both delaying and diminishing the increase in plasma F1+2 concentrations”. For the same compound, the “activation of the fibrinolytic system” value (healthy male volunteers, oral dose 3 h before LPS 4 ng/kg i.v., tPA, PAI-1, PAPc assayed) was “even stronger inhibitory effect” and the IL-6 concentrations (subjects treated during low grade endotoxemia (LPS i.v.)) was “reduced IL-6 concentrations”.
